Read-outs that look alike come from different tables or passages of the source.
What was measured:
[1] = target: T1, α2A-AR (Homo sapiens, UniProt P08913); format: binding
T1 sequence (P08913 1-465): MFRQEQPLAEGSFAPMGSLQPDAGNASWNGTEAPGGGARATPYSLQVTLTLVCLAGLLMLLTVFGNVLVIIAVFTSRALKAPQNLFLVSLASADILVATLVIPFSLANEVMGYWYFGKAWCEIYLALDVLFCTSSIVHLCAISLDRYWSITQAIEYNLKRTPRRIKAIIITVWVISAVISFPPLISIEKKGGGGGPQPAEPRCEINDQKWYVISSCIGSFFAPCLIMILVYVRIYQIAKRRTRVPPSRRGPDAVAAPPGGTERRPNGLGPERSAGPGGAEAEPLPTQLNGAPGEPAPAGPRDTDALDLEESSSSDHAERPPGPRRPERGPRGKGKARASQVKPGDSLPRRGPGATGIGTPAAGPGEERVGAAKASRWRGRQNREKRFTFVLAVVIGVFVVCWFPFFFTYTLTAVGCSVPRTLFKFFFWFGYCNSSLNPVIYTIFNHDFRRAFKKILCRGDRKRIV

[2] = target: T2, α2C-AR (Homo sapiens, UniProt P18825); format: binding; settings: for Subtype Selectivity (α2A/α2C): ratio between Ki for α2A vs. α2C
T2 sequence (P18825 1-462): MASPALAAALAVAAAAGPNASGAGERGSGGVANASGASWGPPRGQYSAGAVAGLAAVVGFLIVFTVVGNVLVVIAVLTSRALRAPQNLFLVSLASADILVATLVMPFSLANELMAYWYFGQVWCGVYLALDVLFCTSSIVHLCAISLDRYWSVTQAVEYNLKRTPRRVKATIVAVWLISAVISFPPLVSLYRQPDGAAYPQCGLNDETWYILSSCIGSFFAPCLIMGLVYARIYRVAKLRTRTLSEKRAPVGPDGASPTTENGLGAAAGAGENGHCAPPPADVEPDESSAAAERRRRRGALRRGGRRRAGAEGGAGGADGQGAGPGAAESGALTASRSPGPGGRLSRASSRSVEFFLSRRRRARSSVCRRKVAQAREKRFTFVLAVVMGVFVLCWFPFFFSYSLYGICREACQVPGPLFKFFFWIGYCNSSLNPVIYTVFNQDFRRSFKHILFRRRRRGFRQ

[3] = tested on: α2A; settings: read-out: α2A (nM), literature Kb; literature Kb values; cited from earlier work
[4] = tested on: α2C; settings: read-out: α2C (nM), literature Kb; literature Kb values; cited from earlier work
[5] = target: α2A; settings: read-out: α2A (nM), literature Ki; literature Ki values; cited from earlier work
[6] = target: α2C; settings: read-out: α2C (nM), literature Ki; literature Ki values; cited from earlier work
[7] = target: α2A; settings: read-out: α2A (nM), literature Kd; literature Kd values; cited from earlier work
[8] = target: α2C; settings: read-out: α2C (nM), literature Kd; literature Kd values; cited from earlier work

| SMILES | Ki [1] [nM] | Subtype Selectivity (α2A/α2C) [2] | Kb [3] [nM] | Kb [4] [nM] | Ki [2] [nM] | Ki [5] [nM] | Ki [6] [nM] | Ki ([1]; read-out: α2A (Ki), HEK293 membranes, 1 nM [3H]RX821002, Ki ± standard deviation) [nM] | Ki ([2]; read-out: α2C (Ki), HEK293 membranes, 1 nM [3H]RX821002, Ki ± standard deviation) [nM] | Kd [7] [nM] | Kd [8] [nM] |
| --- | --- | --- | --- | --- | --- | --- | --- | --- | --- | --- | --- |
| COc1ccccc1C1=CC(=O)N([C@H]2CCCN(C[C@H]3COc4ccccc4O3)C2)C1 [Compound 3, 1-((S)-1-(((S)-2,3-dihydrobenzo[b][1,4]dioxin-2-yl)methyl)piperidin-3-yl)-4-(2-methoxyphenyl)-1,5-dihydro-2H-pyrrol-2-one] | 458 ± 26 | 751,000 | > 449 | < 0.001 |  |  |  |  |  |  |  |
| COCc1c(C)nn(C)c1N1CCN(C[C@H]2COc3ccccc3O2)CC1 [Compound 2, (S)-1-((2,3-dihydrobenzo[b][1,4]dioxin-2-yl)methyl)-4-(4-(methoxymethyl)-1,3-dimethyl-1H-pyrazol-5-yl)-piperazine] | 12.3 ± 1.2 | 16.6 | 306 | 1.62 | 0.74 ± 0.1 |  |  |  |  |  |  |
| COCc1cccnc1N1CCN(C[C@H]2COc3ccccc3O2)CC1 [ORM-13070, (S)-1-((2,3-dihydrobenzo[b][1,4]dioxin-2-yl)methyl)-4-(3-(methoxymethyl)pyridin-2-yl)piperazine, reference compound] | 2.8 ± 0.2 | 11.2 |  |  | 0.25 ± 0.09 | 109 | 3.8 |  |  |  |  |
| COCc1scnc1N1CCN(C[C@H]2COc3ccccc3O2)CC1 [Compound 1, (S)-4-(4-((2,3-dihydrobenzo[b][1,4]dioxin-2-yl)methyl)piperazin-1-yl)-5-(methoxymethyl)thiazole] | 1.06 ± 0.52 | 4.24 | 88 | < 0.1 | 0.25 ± 0.01 |  |  |  |  |  |  |
| CCS(=O)(=O)N1CCC[C@@H]2CN3CCc4cc(OC)ccc4[C@@H]3C[C@@H]21 [RS79948, reference compound] |  | 0.55 |  |  |  |  |  | 0.16 ± 0.12 | 0.29 ± 0.08 | 0.6 | 0.77 |
| COc1cccc(-n2nc(C)cc2N2CCN(C[C@H]3COc4ccccc4O3)CC2)n1 [Compound 4, (S)-1-((2,3-dihydrobenzo[b][1,4]dioxin-2-yl)methyl)-4-(1-(6-methoxypyridin-2-yl)-3-methyl-1H-pyrazol-5-yl)piperazine] | 2.77 ± 0.58 | 6.93 | 82 | 0.29 | 0.4 ± 0.07 |  |  |  |  |  |  |

— paper PMC12067315 (European journal of medicinal chemistry, 2022)
